Our source for the IC50 values is patent US9518038B2, “Condensation product of theanine derivative and carboxylic acid coumarin derivative, its intermediate, preparation method and use thereof” (SHANDONG YINGDONG YINGHAO BIOTECHNOLOGY, INC., priority 2012, dated 2016).

The subject of test [1] is human neuroma cells D54. Kind of test: MTT growth inhibition, D54 cells. The test is classed as cell-based. The conditions noted are these: Homo sapiens, 72 h after treatment, read-out: Drug concentration (IC50) at which 50% cancer cells survived. The source says:
(§1) Cell lines and cell culture: human lung cancer cells A549 and H460, human breast cancer cells MCF-7 and MDA-MB-231, human gastric cancer cells BGC-823, human prostate cancer cells PC-3, human chronic leukemia cells K562, human lymphoma cells U937, human liver cancer cells SMMC7721 and HepG2, human colon cancer cells HT29, human pancreatic cancer cells PANC-1 and BxPC3, human cervical cancer Hela cell lines, human brain tumor cells Daoy, human neuroma cells D54 and human oral epidermoid cancer cells KBV200 line with strong drug resistance, mouse melanoma cells B16, and highly metastatic Lewis lung cancer cell lines were purchased from American Type Culture Collection of the U.S. These cells were cultured with DMEM and RPMI-1640 culture solutions separately.
(§2) The procedure was as follows:
(§3) (1) 0.25% trypsin was used to digest cancer cells in a logarithmic growth phase to prepare a single-cell suspension, the concentration of cells was adjusted to 5×10^4/mL, and the adjusted suspension was inoculated into a 96-well culture plate with 100 μl per well;
(§4) (2) The culture plate was transferred into a 37° C. incubator with a saturated humidity and 5% of CO2 and cultured for 24 h; the compounds and the intermediates thereof obtained in embodiments 1-7 and the compound as represented by formula (IIIa) or the positive control anti-cancer drug with the concentration of 1-1000 μM/L were added to enable the final concentration to be 0.1-1500 μM/L. Control wells (only added with 200 μl of cell suspension) and drug-free blank control wells (containing the solvent of 0.01% DMSO) were set, each group included 8 wells, and the plate was placed into the 37° C. incubator with saturated humidity and 5% of CO2 for culturing;
(§5) (3) The 96-well plate was taken out at 48 h and 72 h after dosing, the original culture medium was carefully removed by suction, 100 μl of serum-free DMEM culture medium and 10 μl of MTT (5 mg/mL) solution were added in each well. The plate was continuously cultured for another 4 h and then the culture was terminated;
(§6) (4) The supernatant in the wells was carefully removed by suction, each well was added with 150 μl of DMSO and shaked at room temperature for 10-15 min to fully dissolve crystals.
(§7) (5) Colorimetric analysis: the wavelength was selected as 570 nm, the light absorbance (A value) of each well was determined on the microplate reader and the results were recorded; the experiment was repeated for three times;
(§8) (6) the experimental results were calculated according to the following formula: relative survival rate=(A value of each experimental group/A value of cell control group)×100%
(§9) Calculation of median-effect concentration (IC50, namely the drug concentration at which the inhibition rate is 50%, also known as half inhibitory concentration):
(§10) IC50 of the detected component was calculated by using a regression equation.

Test [2] relates to human oral epidermoid cancer cells KBV200. Kind of test: MTT growth inhibition, KBV200 cells. The conditions noted are these: 72 h after treatment, read-out: Drug concentration (IC50) at which 50% cancer cells survived. The test is classed as cell-based.
From the text: as §1, §2, §3, §4, §5, §6, §7, §8, §9, §10

For test [3], the system named is human pancreatic cancer cells BxPC3. Kind of test: MTT growth inhibition, BxPc3 cells. The conditions noted are these: Homo sapiens, BXPC-3, 72 h after treatment, read-out: Drug concentration (IC50) at which 50% cancer cells survived. The test is classed as cell-based.
From the text: as §1, §2, §3, §4, §5, §6, §7, §8, §9, §10

Test [4] concerns human liver cancer cells HepG2. Kind of test: MTT growth inhibition, HepG2 cells. The test is classed as cell-based. Particulars: 72 h after treatment, read-out: Drug concentration (IC50) at which 50% cancer cells survived.
From the text: as §1, §2, §3, §4, §5, §6, §7, §8, §9, §10

In test [5] the test system is human brain tumor cells Daoy. Briefly: MTT growth inhibition, Daoy cells. Particulars: Homo sapiens, 72 h after treatment, read-out: Drug concentration (IC50) at which 50% cancer cells survived. The format is cell-based.
From the text: as §1, §2, §3, §4, §5, §6, §7, §8, §9, §10

Test [6] concerns human liver cancer cells SMMC7721. Briefly: MTT growth inhibition, SMMC7721 cells. The test is classed as cell-based. The conditions noted are these: SMMC-7721, S-7721 (SMMC7721), 72 h after treatment, read-out: Drug concentration (IC50) at which 50% cancer cells survived.
From the text: as §1, §2, §3, §4, §5, §6, §7, §8, §9, §10

In test [7] the test system is Caski human cervical cancer cells. Kind of test: MTT growth inhibition, Caski cells. The test is classed as cell-based. The conditions noted are these: Ca-Ski, 72 h after treatment, read-out: Drug concentration (IC50) at which 50% cancer cells survived.
Test [8] has as its system human lymphoma cells U937. Kind of test: MTT growth inhibition, U937 cells. The format is cell-based. Particulars: Homo sapiens, U-937, 72 h after treatment, read-out: Drug concentration (IC50) at which 50% cancer cells survived. On the procedure: as §2, §5, §6, §7, §8, §10
The test system of test [9] is highly metastatic Lewis lung cancer cell lines. Briefly: MTT growth inhibition, LLC cells. The format is cell-based, mouse. Particulars: Mus musculus, Lewis lung carcinoma, 72 h after treatment, read-out: Drug concentration (IC50) at which 50% cancer cells survived.
From the text: as §1, §2, §3, §4, §5, §6, §7, §8, §9, §10

The test system of test [10] is human breast cancer cells MDA-MB-231. Briefly: MTT growth inhibition, MDA-MB-231 cells. The test is classed as cell-based. Particulars: 72 h after treatment, read-out: Drug concentration (IC50) at which 50% cancer cells survived.
From the text: as §1, §2, §3, §4, §5, §6, §7, §8, §9, §10

Test [11] deals with human breast cancer cells MCF-7. Briefly: MTT growth inhibition, MCF-7 cells. The format is cell-based. The conditions noted are these: MCF7, 72 h after treatment, read-out: Drug concentration (IC50) at which 50% cancer cells survived.
From the text: as §1, §2, §3, §4, §5, §6, §7, §8, §9, §10

For test [12], the system named is human colon cancer cells HT29. Briefly: MTT growth inhibition, HT29 cells. The format is cell-based. Particulars: HT-29, 72 h after treatment, read-out: Drug concentration (IC50) at which 50% cancer cells survived.
From the text: as §1, §2, §3, §4, §5, §6, §7, §8, §9, §10

In test [13] the test system is mouse melanoma cells B16. Briefly: MTT growth inhibition, B16 cells. The test is classed as cell-based. Particulars: Mus musculus, 72 h after treatment, read-out: Drug concentration (IC50) at which 50% cancer cells survived.
From the text: as §1, §2, §3, §4, §5, §6, §7, §8, §9, §10

The test system of test [14] is human cervical cancer Hela cell lines. Kind of test: MTT growth inhibition, Hela cells. The test is classed as cell-based. The conditions noted are these: Homo sapiens, 72 h after treatment, read-out: Drug concentration (IC50) at which 50% cancer cells survived.
From the text: as §1, §2, §3, §4, §5, §6, §7, §8, §9, §10

Test [15] deals with human gastric cancer cells BGC-823. Briefly: MTT growth inhibition, BGC-823 cells. Particulars: 72 h after treatment, read-out: Drug concentration (IC50) at which 50% cancer cells survived. The test is classed as cell-based.
From the text: as §1, §2, §3, §4, §5, §6, §7, §8, §9, §10

In test [16] the test system is human prostate cancer cells PC-3. Briefly: MTT growth inhibition, PC-3 cells. The test is classed as cell-based. Particulars: 72 h after treatment, read-out: Drug concentration (IC50) at which 50% cancer cells survived.
From the text: as §1, §2, §3, §4, §5, §6, §7, §8, §9, §10

In test [17] the test system is human chronic leukemia cells K562. Kind of test: MTT growth inhibition, K562 cells. The format is cell-based. Particulars: 72 h after treatment, read-out: Drug concentration (IC50) at which 50% cancer cells survived.
From the text: as §1, §2, §3, §4, §5, §6, §7, §8, §9, §10

Test [18] has as its system human pancreatic cancer cells PANC-1. Kind of test: MTT growth inhibition, PANC-1 cells. The test is classed as cell-based. The conditions noted are these: 72 h after treatment, read-out: Drug concentration (IC50) at which 50% cancer cells survived.
From the text: as §1, §2, §3, §4, §5, §6, §7, §8, §9, §10

Test [19] has as its system human lung cancer cells H460. Kind of test: MTT growth inhibition, H460 cells. The format is cell-based. Particulars: NCI-H460, 72 h after treatment, read-out: Drug concentration (IC50) at which 50% cancer cells survived.
From the text: as §1, §2, §3, §4, §5, §6, §7, §8, §9, §10

For test [20], the system named is human lung cancer cells A549. Kind of test: MTT growth inhibition, A549 cells. Particulars: 72 h after treatment, read-out: Drug concentration (IC50) at which 50% cancer cells survived. The format is cell-based.
From the text: as §1, §2, §3, §4, §5, §6, §7, §8, §9, §10

Each structure is given as a SMILES string.

Regarding `O=C(O)c1cc2cc(Cl)cc(Cl)c2oc1=O` [Compound IIIg, 6,8-dichloro-coumarin-3-carboxylic acid], the IC50 in test [1] was found to be 300 µM; in [2], 300 µM; in [3], 300 µM; in test [4] it was 420 µM; in [5], 350 µM; in [6], 490 µM. Further, the IC50 in test [7] came to 250 µM; in test [8], 350 µM; in [9] it was 250 µM; in test [10] it was 460 µM; in test [11] it was 410 µM; in test [12] it was 480 µM. The IC50 in test [13] came to 500 µM; in test [14] it was 260 µM; in [15] it was 380 µM; in [16], 310 µM; in test [17], 420 µM; in test [18] it was 430 µM. The IC50 in [19] stood at 400 µM; in test [20], 330 µM.

For `O=C(O)c1cc2cc(F)ccc2oc1=O` [Compound IIIe, 6-fluorocoumarin-3-carboxylic acid], the IC50 came to 300 µM in test [1]; 300 µM in [2]; 500 µM in [3]; 400 µM in [4]; 500 µM in test [5]; 490 µM in [6]. Also, the IC50 was determined as 380 µM in [7]; 560 µM in test [8]; 380 µM in test [9]; 520 µM in [10]; 390 µM in [11]; 570 µM in test [12]. The IC50 came out at 600 µM in test [13]; 600 µM in [14]; 700 µM in test [15]; 520 µM in test [16]; 300 µM in test [17]; 480 µM in test [18]. For the same compound, the IC50 in [19] and in test [20] was 450 µM in each case.

Take `O=C(O)c1cc2cc(Br)cc(Br)c2oc1=O` [Compound IIIh, 6,8-dibromo-coumarin-3-carboxylic acid]: the IC50 in test [1] amounted to 300 µM; in test [2] it was 300 µM; in test [3], 400 µM; in test [4], 145 µM; in test [5] it was 350 µM; in test [6], 530 µM. Further, the IC50 turned out to be 135 µM in test [7]; 390 µM in [8]; 350 µM in test [9]; 420 µM in test [10]; 450 µM in [11]; 590 µM in [12]. Also, the IC50 is 460 µM in [13]; 290 µM in test [14]; 480 µM in [15]; 410 µM in [16]; 480 µM in [17]; 480 µM in test [18]. In addition, the IC50 stood at 550 µM in test [19] and 450 µM in [20].

With `O=C(O)c1cc2cc(Cl)ccc2oc1=O` [Compound IIIc, 6-chlorocoumarin-3-carboxylic acid], the IC50 in test [1] is 300 µM; in [2] it was 400 µM; in [3] it was 500 µM; in [4], 300 µM; in test [5], 400 µM; in test [6] it was 500 µM. Besides, the IC50 in [7] stood at 400 µM; in [8], 500 µM; in [9], 400 µM; in [10], 500 µM; in test [11] it was 300 µM; in [12], 700 µM. For the same compound, the IC50 was 600 µM in [13]; 600 µM in test [14]; 300 µM in [15]; 500 µM in test [16]; 600 µM in [17]; 500 µM in test [18]. Moreover, the IC50 amounted to 350 ± 50 µM in [19] and 600 ± 30 µM in test [20].
